The values that follow come from patent publication US8609635B2, “Fused tricyclic silyl compounds and methods of use thereof for the treatment of viral diseases” (priority 2010, dated 2013).

Like-named read-outs stand apart in the source and are kept apart here.

In experiment [1] the test system is HCV chimeric replicon with NS5A of genotype 3a (NC00982). The experiment is described as follows: Cell-based HCV replicon assay (TaqMan), chimeric replicon genotype 3a (NC00982). To be noted: replicon RNA by TaqMan, day 3. The method, then: (§1) Measurement of inhibition by compounds of the present invention was performed using the HCV replicon system. Several different replicons encoding different HCV genotypes or mutations were used. In addition, potency measurements were made using different formats of the replicon assay, including different ways of measurements and different plating formats. See Jan M. Vrolijk et al., A replicons-based bioassay for the measurement of interferons in patients with chronic hepatitis C, 110 J. VIROLOGICAL METHODS 201 (2003); Steven S. Carroll et al., Inhibition of Hepatitis C Virus RNA Replication by 2′-Modified Nucleoside Analogs, 278(14) J. BIOLOGICAL […] 11979 (2003). However, the underlying principles are common to all of these determinations, and are outlined below.
(§2) Compounds of the present invention were assayed for cell-based anti-HCV activity using the following protocol. Replicon cells were seeded at 5000 cells/well in 96-well collagen I-coated Nunc plates in the presence of the test compound. Various concentrations of test compound, typically in 10 serial 2-fold dilutions, were added to the assay mixture, with the starting concentration ranging from 250 μM to 1 μM. The final concentration of DMSO was 0.5%, fetal bovine serum was 5%, in the assay media. Cells were harvested on day 3 by the addition of 1× cell lysis buffer (Ambion cat #8721). The replicon RNA level was measured using real time PCR (TaqMan® assay). The amplicon was located in 5B. The PCR primers were: 5B.2F, […] (SEQ. ID NO. 1); 5B.2R, […] (SEQ. ID NO. 2); the probe sequence was FAM-labeled […] (SEQ. ID NO. 3). GAPDH RNA was used as endogenous control and was amplified in the same reaction as NS5B (multiplex PCR) using primers and VIC-labeled probe recommended by the manufacturer (PE Applied Biosystem). The real-time RT-PCR reactions were run on ABI PRISM 7900HT Sequence Detection System using the following program: 48° C. for 30 minutes, 95° C. for 10 minutes, 40 cycles of 95° C. for 15 sec, 60° C. for 1 minute. The ΔCT values (CT5B-CTGAPDH) were plotted against the concentration of test compound and fitted to the sigmoid dose-response model using XLfit4 (MDL). […] Alternatively, to quantitate the absolute amount of replicon RNA, a standard curve was established by including serially diluted T7 transcripts of replicon RNA in the Taqman assay. All TaqMan® reagents were from PE Applied Biosystems. Such an assay procedure was described in detail in e.g. Malcolm et al., Antimicrobial Agents and Chemotherapy 50: 1013-1020 (2006).
(§3) Wherein gt1a_H77 was prepared as described in Yi et al., J Virol. 2004, 78(15):7904-15; gt1b_con1 was prepared as described in Lohmann et al., Science 1999, 285(5424):110-3; and gt2a_JFH was prepared as described in Kato et al., Gastroenterology. 2003, 125(6):1808-17. Chimeric replicons contain NS5A from patient isolates of genotypes 1a, 1b, 2b, 3a and 4a as indicated.
(Replicon systems follow genome replication, usually without infectious particles.)

Experiment [2] has as its system HCV replicon gt2a_JFH. The experiment is described as follows: Cell-based HCV replicon assay (TaqMan), genotype 2a (JFH). To be noted: replicon 2a (JFH), replicon RNA by TaqMan, day 3. The protocol:
as §1, §2, §3

Experiment [3] deals with HCV chimeric replicon with NS5A of genotype 4a (DQ41878). The experiment is described as follows: Cell-based HCV replicon assay (TaqMan), chimeric replicon genotype 4a (DQ41878). To be noted: Hepatitis C virus, 72 h, read-out: HCV replicon EC50 4a (DQ41878). The protocol:
as §1, §2, §3

Experiment [4] relates to HCV replicon gt1b_con1. Description: Cell-based HCV replicon assay (TaqMan), genotype 1b (Con1). Conditions: replicon 1b (Con1), replicon RNA by TaqMan, day 3. The method, then: as §1, §2, §3
For experiment [5], the system named is HCV replicon gt1a_H77. Description: Cell-based HCV replicon assay (TaqMan), genotype 1a (H77). Conditions: replicon 1a (H77), replicon RNA by TaqMan, day 3. The method, then: as §1, §2, §3
Experiment [6] deals with HCV replicon 1a (Y93H) mutant. Description: Cell-based HCV replicon assay (TaqMan), genotype 1a mutant Y93H. To be noted: read-out: HCV replicon EC50 1a (Y93H). The protocol: as §1, §2, §3
[7] abbreviates: Hepatitis C virus, 72 h, read-out: HCV replicon EC50 3a (NC00982), chimeric replicon 3a (NC00982).

Take `COC(=O)NC(C(=O)N1CCCC1c1ncc(-c2ccc(-c3ccc4c(ccc5nc([C@@H]6C[Si](C)(C)CN6C(=O)C(NC(=O)OC)C(C)C)[nH]c54)c3)cc2)[nH]1)C(C)C` (stereo partly drawn) [Compound 1]: the EC50 in experiment [1] (setting [7]) is 0.26 nM; in experiment [2] (Hepatitis C virus, 72 h), 0.003 nM; in experiment [3], 0.067 nM; in experiment [4] (Hepatitis C virus, 72 h) it was 0.003 nM; in experiment [5] (Hepatitis C virus, 72 h) it was 0.003 nM.
For the compound `COC(=O)N[C@H](C(=O)N1C[Si](C)(C)C[C@H]1c1ncc(-c2ccc(-c3ccc4c(ccc5nc([C@@H]6CCCN6C(=O)[C@@H](NC(=O)OC)C(C)C)[nH]c54)c3)cc2OCCO)[nH]1)C(C)C` [Compound 44], the EC50 in experiment [1] (setting [7]) is 31 nM; in experiment [6] (Hepatitis C virus, 72 h), 1390 nM; in experiment [2] (Hepatitis C virus, 72 h), more than 10 nM; in experiment [4] (Hepatitis C virus, 72 h) it was 0.007 nM; in experiment [5] (Hepatitis C virus, 72 h), more than 1 nM.
The like results for `COC(=O)N[C@H](C(=O)N1C[Si](C)(C)C[C@H]1c1ncc(-c2ccc(-c3ccc4c(ccc5nc([C@@H]6CCCN6C(=O)[C@@H](NC(=O)OC)C(C)C)[nH]c54)c3)cc2-c2cccs2)[nH]1)C(C)C` [Compound 50] were, in that order, 3 nM, 1150 nM, 1.62 nM, 0.008 nM and 0.505 nM.
As to `COC(=O)NC(C(=O)N1C[Si](C)(C)CC1c1ncc(-c2ccc(-c3ccc4c(ccc5nc([C@@H]6CCCN6C(=O)C(NC(=O)OC)C(C)C)[nH]c54)c3)cc2)[nH]1)C(C)C` (stereo partly drawn) [Compound 2], the EC50 in experiment [1] (setting [7]) stood at 0.05 nM; in experiment [2] (Hepatitis C virus, 72 h), 0.019 nM; in experiment [4] (Hepatitis C virus, 72 h), 0.004 nM; in experiment [5] (Hepatitis C virus, 72 h), 0.01 nM.
In the case of `COC(=O)N[C@H](C(=O)N1CC(O)C[C@H]1c1ncc(-c2ccc(-c3ccc4c(ccc5nc([C@@H]6C[Si](C)(C)CN6C(=O)[C@@H](NC(=O)OC)C(C)C)[nH]c54)c3)cc2)[nH]1)C(C)C` (stereo partly drawn) [Compound 65], the EC50 was determined as 1.7 nM in experiment [1] (setting [7]); 44 nM in experiment [6] (Hepatitis C virus, 72 h); 0.3 nM in experiment [2] (Hepatitis C virus, 72 h); 0.004 nM in experiment [4] (Hepatitis C virus, 72 h); 0.06 nM in experiment [5] (Hepatitis C virus, 72 h).
As for `COC(=O)NC(C(=O)N1C[Si](C)(C)CC1c1ncc(-c2ccc(-c3ccc4c(ccc5nc([C@@H]6CCCN6C(=O)C(NC(=O)OC)C(C)C)[nH]c54)c3)s2)[nH]1)C(C)C` (stereo partly drawn) [Compound 20], the concentration giving a half-maximal response (EC50) was found to be 0.26 nM in experiment [1] (setting [7]); 921 nM in experiment [6] (Hepatitis C virus, 72 h); 0.3 nM in experiment [2] (Hepatitis C virus, 72 h); 0.004 nM in experiment [4] (Hepatitis C virus, 72 h); 0.14 nM in experiment [5] (Hepatitis C virus, 72 h).
With `COC(=O)N[C@H](C(=O)N1C[Si](C)(C)C[C@H]1c1ncc(-c2ccc(-c3ccc4c(ccc5nc([C@@H]6CCCN6C(=O)[C@@H](NC(=O)OC)C(C)C)[nH]c54)c3)cc2-c2ccncc2)[nH]1)C(C)C` [Compound 51], the EC50 was more than 100 nM in experiment [1] (setting [7]); 8420 nM in experiment [6] (Hepatitis C virus, 72 h); more than 10 nM in experiment [2] (Hepatitis C virus, 72 h); 0.05 nM in experiment [4] (Hepatitis C virus, 72 h); more than 1 nM in experiment [5] (Hepatitis C virus, 72 h).
With `COC(=O)N[C@H](C(=O)N1C[Si](C)(C)C[C@H]1c1ncc(-c2ccc(-c3ccc4c(ccc5nc([C@@H]6CCCN6C(=O)[C@@H](NC(=O)OC)C(C)C)[nH]c54)c3)cc2OC)[nH]1)C(C)C` [Compound 46], the EC50 was 2.4 nM in experiment [1] (setting [7]); 497 nM in experiment [6] (Hepatitis C virus, 72 h); 0.6 nM in experiment [2] (Hepatitis C virus, 72 h); 0.004 nM in experiment [4] (Hepatitis C virus, 72 h); 0.26 nM in experiment [5] (Hepatitis C virus, 72 h).
The like results for `COC(=O)NC(C(=O)N1C[Si](C)(C)CC1c1ncc(-c2ccc(-c3ccc4c(ccc5nc([C@@H]6C7CCC(C7)N6C(=O)C(NC(=O)OC)C(C)C)[nH]c54)c3)cc2)[nH]1)C(C)C` (stereo partly drawn) [Compound 16] were, in that order, 0.23 nM, 146 nM, 0.06 nM, 0.004 nM and 0.04 nM.
The like results for `COC(=O)N[C@H](C(=O)N1C[Si](C)(C)C[C@H]1c1ncc(-c2ccc(-c3ccc4c(ccc5nc([C@@H]6CCCN6C(=O)[C@@H](NC(=O)OC)C(C)C)[nH]c54)c3)cc2OCCOC(C)=O)[nH]1)C(C)C` [Compound 45] were, in that order, 52 nM, 2640 nM, more than 10 nM, 0.009 nM and more than 1 nM.
The like results for `COC(=O)N[C@H](C(=O)N1C[Si](C)(C)C[C@H]1c1ncc(-c2ccc(-c3ccc4c(ccc5nc([C@@H]6CC(F)(F)CN6C(=O)[C@@H](NC(=O)OC)C(C)C)[nH]c54)c3)cn2)[nH]1)C(C)C` [Compound 72] were, in that order, 2.41 nM, 246 nM, 0.496 nM, 0.004 nM and 0.1 nM.
In the case of `COC(=O)N[C@H](C(=O)N1C[Si](C)(C)C[C@H]1c1ncc(-c2ccc(-c3ccc4c(ccc5nc([C@@H]6CCCN6C(=O)[C@@H](NC(=O)OC)C(C)C)[nH]c54)c3)nc2)[nH]1)C(C)C` [Compound 49], the EC50 came out at 0.2 nM in experiment [1] (setting [7]); 185 nM in experiment [6] (Hepatitis C virus, 72 h); 0.037 nM in experiment [2] (Hepatitis C virus, 72 h); 0.014 nM in experiment [4] (Hepatitis C virus, 72 h); 0.04 nM in experiment [5] (Hepatitis C virus, 72 h).
As to `COC(=O)N[C@H](C(=O)N1CC(F)(F)C[C@H]1c1ncc(-c2ccc3oc(-c4ccc5c(ccc6nc([C@@H]7C[Si](C)(C)CN7C(=O)[C@@H](NC(=O)OC)C(C)C)[nH]c65)c4)cc3c2)[nH]1)C(C)C` [Compound 42], the EC50 in experiment [1] (chimeric replicon 3a (NC00982), read-out: HCV replicon EC50 3a (NC00982)) is 11.4 nM; in experiment [6] (replicon 1a mutant Y93H, replicon RNA by TaqMan, day 3), 103 nM; in experiment [2], more than 10 nM; in experiment [4], 0.005 nM; in experiment [5], 0.012 nM.
For the compound `COC(=O)N[C@H](C(=O)N1C[Si](C)(C)C[C@H]1c1ncc(-c2ccc(-c3ccc4c(ccc5nc([C@@H]6CCCN6C(=O)[C@@H](NC(=O)OC)C(C)C)[nH]c54)c3)cc2F)[nH]1)C(C)C` [Compound 48], the EC50 was 0.25 nM in experiment [1] (setting [7]); 329 nM in experiment [6] (Hepatitis C virus, 72 h); 0.07 nM in experiment [2] (Hepatitis C virus, 72 h); 0.004 nM in experiment [4] (Hepatitis C virus, 72 h); 0.05 nM in experiment [5] (Hepatitis C virus, 72 h).
The like results for `COC(=O)N[C@H](C(=O)N1C[Si](C)(C)C[C@H]1c1ncc(-c2ccc(-c3ccc4c(ccc5nc([C@@H]6CC(F)(F)CN6C(=O)[C@@H](NC(=O)OC)C(C)C)[nH]c54)c3)cc2F)[nH]1)C(C)C` [Compound 71] were, in that order, 0.9 nM, 188 nM, 0.45 nM, less than 0.002 nM and 0.12 nM.
In the same order, the values of `COC(=O)N[C@H](C(=O)N1C[Si](C)(C)C[C@H]1c1ncc(-c2ccc(-c3ccc4c(ccc5nc([C@@H]6CCCN6C(=O)[C@@H](NC(=O)OC)C(C)C)[nH]c54)c3)cc2C2CC2)[nH]1)C(C)C` [Compound 47] are 5.5 nM, 1600 nM, 1.7 nM, 0.007 nM and 0.4 nM.
The like results for `COC(=O)NC(C(=O)N1C2CCC(C2)C1c1ncc(-c2ccc(-c3ccc4c(ccc5nc([C@@H]6C[Si](C)(C)CN6C(=O)C(NC(=O)OC)C(C)C)[nH]c54)c3)cc2)[nH]1)C(C)C` (stereo partly drawn) [Compound 15] were, in that order, 1 nM, 131 nM, 0.12 nM, 0.011 nM and 0.088 nM.

In general, EC50 refers to the concentration needed to bring the measured effect to its halfway point.
